Measurements as given in paper PMC10682951, “Structure-function and rational design of a spider toxin Ssp1a at human voltage-gated sodium channel subtypes” (Frontiers in Pharmacology, 2023).
Bridge positions count the residues as written; N and C are the ends. Peptide text beside a SMILES is read from it.

How the values were obtained:
Format in all cases: cell-based
[1] = molecular target: T1, hNaV1.2 (Homo sapiens, UniProt Q99250); assay: Automated whole-cell patch-clamp (QPatch 16X), hNaV1.2; conditions: for IC50: HEK293 cells expressing hNaV1.2 + β1 subunit, QPatch 16X, holding −80 mV, step to 0 mV, peptide incubated 2 min, 0.1% BSA, mean, SEM and n (2-7)
T1 construct: host or cells: HEK293
Description: (§1) Human embryonic kidney 293 (HEK293) cells stably expressing recombinant hNaV1.2, hNaV1.3 and hNaV1.7 and the β1 auxiliary subunit (Scottish Biomedical Drug Discovery, Glasgow, UK) were cultured in Minimal Essential medium (MEM) (Sigma-Aldrich, MO, United States) supplemented with 10% v/v FBS-New Zealand origin (Assay Matrix), 2 mM L-glutamine and selection antibiotics as per manufacturer’s recommendation. The HEK293 cells heterologously expressing mNaV1.7 and F813G-mNaV1.7 were generously provided by Prof Irina Vetter and were cultured in Minimal Essential medium (MEM) (Sigma-Aldrich, MO, United States) supplemented with 10% v/v FBS-New Zealand origin (Assay Matrix), 2 mM L-glutamine and hygromycin 100 μg/mL.
(§2) NaV channel currents from HEK293 cells stably expressing NaV subtypes and the β1 auxiliary subunit were recorded using an automated whole-cell patch clamp system QPatch 16X (Sophion Bioscience A/S, Ballerup, Denmark). As per the manufacturer’s guidelines, the cells were cultured for 48 h to achieve ∼80% confluency, detached using Detachin (Genlantis) and resuspended to 5 × 10^6 cells/mL in serum free media [CHO-cell SFM (Life Technologies), 25 mM HEPES and 100 U/mL penicillin/streptomycin]. The extracellular solution comprised (in mM) 1 CaCl2, 1 MgCl2, 5 HEPES, 3 KCl, 140 NaCl and 20 TEA-Cl, with the pH adjusted to 7.3 with NaOH. The intracellular solution comprised (in mM) 140 CsF, 1 EGTA, 5 CsOH, 10 HEPES and 10 NaCl, with the pH adjusted to 7.3 with CsOH. The osmolarity of both solutions were adjusted to 320 mOsm with sucrose. Compounds were prepared in extracellular solution containing 0.1% bovine serum albumin (Sigma-Aldrich). To obtain the dose-response curves, cells were maintained at a holding potential −80 mV and Na^+ currents were elicited by […] voltage steps to 0 mV from a −120 mV conditioning pulse applied for […]. Increasing concentrations of the peptide were incubated with the cells at the holding potential for 2 min before the voltage protocol was applied.
(§3) The experimental data were analysed using QPatch Assay software v5.6.4 and GraphPad Prism 7.0 using a four-parameter Hill equation [Y = Bottom + (Top—Bottom)/(1 + 10^(Log IC50—X)* Hillslope)] to fit concentration response curves by non-linear regression analysis and Student’s t-test. Data are presented as means ± standard error of mean (SEM) with number of independent experiments stated and p < 0.05 is considered statistically significant. Statistically insignificant shift in the activity is denoted by “little” while small but statistically significant shift in the activity is denoted by “slight” throughout the manuscript.

[2] = molecular target: T2, hNaV1.3 (Homo sapiens, UniProt Q9NY46); assay: Automated whole-cell patch-clamp (QPatch 16X), hNaV1.3; conditions: HEK293 cells expressing hNaV1.3 + β1 subunit; QPatch 16X; holding −80 mV, step to 0 mV; peptide incubated 2 min; 0.1% BSA; mean, SEM and n (3-12)
T2 construct: host or cells: HEK293
Description: as §1, §2, §3

[3] = molecular target: T3, hNaV1.7 (Homo sapiens, UniProt Q15858); assay: Automated whole-cell patch-clamp (QPatch 16X), hNaV1.7; conditions: for IC50: HEK293 cells expressing hNaV1.7 + β1 subunit, QPatch 16X, holding −80 mV, step to 0 mV, peptide incubated 2 min, 0.1% BSA, mean, SEM and n (3-9)
T3 construct: host or cells: HEK293
Description: as §1, §2, §3

T1 sequence (Q07699 19-218): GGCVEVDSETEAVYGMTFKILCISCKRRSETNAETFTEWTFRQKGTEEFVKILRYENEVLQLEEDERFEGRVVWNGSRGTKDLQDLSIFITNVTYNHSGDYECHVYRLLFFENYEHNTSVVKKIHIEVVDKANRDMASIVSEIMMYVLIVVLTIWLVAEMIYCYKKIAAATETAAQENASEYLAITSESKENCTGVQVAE
T1 sequence (Q99250 whole entry): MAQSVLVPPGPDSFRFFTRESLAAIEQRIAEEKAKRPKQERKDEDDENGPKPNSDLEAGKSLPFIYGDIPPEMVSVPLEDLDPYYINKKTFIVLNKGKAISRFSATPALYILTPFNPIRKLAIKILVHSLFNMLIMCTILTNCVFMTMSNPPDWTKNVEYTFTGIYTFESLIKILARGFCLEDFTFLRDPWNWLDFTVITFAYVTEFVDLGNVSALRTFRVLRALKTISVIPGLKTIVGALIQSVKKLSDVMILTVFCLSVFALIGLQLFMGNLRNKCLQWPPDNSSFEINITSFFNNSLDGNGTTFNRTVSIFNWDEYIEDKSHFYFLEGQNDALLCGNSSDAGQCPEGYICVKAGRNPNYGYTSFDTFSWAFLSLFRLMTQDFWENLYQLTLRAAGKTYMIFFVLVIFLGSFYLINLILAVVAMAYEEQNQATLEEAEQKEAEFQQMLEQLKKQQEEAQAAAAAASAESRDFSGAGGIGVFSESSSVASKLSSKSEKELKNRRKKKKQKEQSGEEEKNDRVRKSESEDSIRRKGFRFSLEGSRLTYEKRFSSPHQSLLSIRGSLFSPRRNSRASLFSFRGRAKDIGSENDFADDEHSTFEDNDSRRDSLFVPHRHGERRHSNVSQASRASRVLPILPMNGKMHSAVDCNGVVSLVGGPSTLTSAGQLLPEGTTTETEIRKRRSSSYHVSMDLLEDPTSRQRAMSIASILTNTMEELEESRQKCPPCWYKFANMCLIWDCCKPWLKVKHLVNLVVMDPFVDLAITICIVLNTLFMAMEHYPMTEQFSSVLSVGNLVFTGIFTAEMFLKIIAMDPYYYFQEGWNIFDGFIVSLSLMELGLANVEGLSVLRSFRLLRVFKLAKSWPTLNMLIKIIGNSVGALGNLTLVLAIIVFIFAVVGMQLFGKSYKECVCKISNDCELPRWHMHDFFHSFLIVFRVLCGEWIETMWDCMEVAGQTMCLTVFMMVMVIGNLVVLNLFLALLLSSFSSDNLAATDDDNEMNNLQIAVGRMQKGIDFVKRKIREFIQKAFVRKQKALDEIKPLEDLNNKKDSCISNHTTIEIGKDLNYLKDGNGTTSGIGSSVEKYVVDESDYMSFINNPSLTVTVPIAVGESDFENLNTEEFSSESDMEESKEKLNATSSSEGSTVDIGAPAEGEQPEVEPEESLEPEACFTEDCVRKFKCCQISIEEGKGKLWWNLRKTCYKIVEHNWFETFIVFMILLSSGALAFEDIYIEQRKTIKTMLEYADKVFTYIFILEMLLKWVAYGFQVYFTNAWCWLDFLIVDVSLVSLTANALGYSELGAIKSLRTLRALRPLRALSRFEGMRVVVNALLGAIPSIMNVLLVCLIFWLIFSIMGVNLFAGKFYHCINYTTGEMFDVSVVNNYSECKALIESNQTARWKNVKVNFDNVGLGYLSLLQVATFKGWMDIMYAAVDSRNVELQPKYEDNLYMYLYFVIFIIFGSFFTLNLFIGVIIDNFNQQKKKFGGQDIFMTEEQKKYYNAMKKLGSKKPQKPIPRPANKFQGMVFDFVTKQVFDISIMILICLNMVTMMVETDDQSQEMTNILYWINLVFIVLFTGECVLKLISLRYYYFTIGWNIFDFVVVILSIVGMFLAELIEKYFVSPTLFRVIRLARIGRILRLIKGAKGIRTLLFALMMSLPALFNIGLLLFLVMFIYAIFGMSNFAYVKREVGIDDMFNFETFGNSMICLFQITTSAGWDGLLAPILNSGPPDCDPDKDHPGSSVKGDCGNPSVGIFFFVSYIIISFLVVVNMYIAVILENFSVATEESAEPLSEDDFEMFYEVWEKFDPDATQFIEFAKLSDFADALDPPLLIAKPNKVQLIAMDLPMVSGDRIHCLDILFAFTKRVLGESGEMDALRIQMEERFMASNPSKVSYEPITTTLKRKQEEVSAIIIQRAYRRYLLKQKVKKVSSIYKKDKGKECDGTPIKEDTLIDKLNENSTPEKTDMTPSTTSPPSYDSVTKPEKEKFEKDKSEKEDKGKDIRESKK
T3 sequence (Q15858 whole entry): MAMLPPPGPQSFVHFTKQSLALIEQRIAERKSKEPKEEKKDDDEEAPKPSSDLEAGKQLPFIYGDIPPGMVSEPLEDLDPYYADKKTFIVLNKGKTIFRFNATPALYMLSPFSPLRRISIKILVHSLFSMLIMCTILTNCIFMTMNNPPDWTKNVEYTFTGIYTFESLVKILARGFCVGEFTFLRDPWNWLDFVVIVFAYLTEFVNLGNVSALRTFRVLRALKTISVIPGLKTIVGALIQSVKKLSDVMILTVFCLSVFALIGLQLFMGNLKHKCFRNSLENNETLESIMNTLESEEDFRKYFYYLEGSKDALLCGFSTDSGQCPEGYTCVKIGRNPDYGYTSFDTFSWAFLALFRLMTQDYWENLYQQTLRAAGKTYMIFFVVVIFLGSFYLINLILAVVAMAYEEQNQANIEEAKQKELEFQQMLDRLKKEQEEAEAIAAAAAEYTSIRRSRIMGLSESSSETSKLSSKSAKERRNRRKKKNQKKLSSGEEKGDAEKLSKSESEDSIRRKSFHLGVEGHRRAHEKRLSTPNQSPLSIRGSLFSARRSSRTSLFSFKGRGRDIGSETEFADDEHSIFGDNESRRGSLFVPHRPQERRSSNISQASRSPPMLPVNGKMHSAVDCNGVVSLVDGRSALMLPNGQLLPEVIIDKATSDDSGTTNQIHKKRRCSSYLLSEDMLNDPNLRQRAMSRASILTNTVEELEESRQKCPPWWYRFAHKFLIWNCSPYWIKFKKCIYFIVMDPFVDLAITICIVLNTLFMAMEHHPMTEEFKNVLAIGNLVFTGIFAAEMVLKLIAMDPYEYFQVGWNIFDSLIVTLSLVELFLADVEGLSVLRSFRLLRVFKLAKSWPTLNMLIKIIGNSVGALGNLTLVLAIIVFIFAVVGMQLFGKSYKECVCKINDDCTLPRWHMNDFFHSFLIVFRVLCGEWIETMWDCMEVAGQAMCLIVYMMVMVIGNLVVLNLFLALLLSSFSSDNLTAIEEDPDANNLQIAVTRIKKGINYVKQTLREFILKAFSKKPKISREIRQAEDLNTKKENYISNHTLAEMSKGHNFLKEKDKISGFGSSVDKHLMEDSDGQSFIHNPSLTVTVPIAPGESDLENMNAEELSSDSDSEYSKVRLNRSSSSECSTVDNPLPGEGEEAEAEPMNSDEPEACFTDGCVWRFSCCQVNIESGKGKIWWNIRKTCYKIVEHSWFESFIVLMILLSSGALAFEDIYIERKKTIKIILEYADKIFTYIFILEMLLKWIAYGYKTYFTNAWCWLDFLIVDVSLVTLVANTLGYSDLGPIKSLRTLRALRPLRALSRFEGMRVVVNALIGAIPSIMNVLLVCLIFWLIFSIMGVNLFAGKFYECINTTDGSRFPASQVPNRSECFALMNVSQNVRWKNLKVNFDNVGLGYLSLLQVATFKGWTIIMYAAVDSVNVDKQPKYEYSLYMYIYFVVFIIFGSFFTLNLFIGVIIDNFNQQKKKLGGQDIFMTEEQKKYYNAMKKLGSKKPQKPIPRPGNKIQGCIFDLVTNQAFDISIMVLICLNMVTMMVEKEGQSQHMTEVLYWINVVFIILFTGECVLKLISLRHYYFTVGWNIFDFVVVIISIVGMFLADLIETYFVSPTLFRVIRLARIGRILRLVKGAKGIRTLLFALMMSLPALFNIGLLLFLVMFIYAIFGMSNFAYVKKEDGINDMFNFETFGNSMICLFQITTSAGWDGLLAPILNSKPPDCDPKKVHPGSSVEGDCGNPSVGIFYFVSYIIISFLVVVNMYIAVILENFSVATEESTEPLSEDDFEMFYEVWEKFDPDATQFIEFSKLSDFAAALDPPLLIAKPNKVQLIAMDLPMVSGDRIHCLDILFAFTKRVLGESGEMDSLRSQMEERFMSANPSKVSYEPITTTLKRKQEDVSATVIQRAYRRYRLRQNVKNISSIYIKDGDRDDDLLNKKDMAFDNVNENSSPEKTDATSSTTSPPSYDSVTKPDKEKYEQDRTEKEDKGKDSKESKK
T3 sequence (Q07699 19-218, further chain): as the sequence (Q07699 19-218) above

| SMILES | IC50 [1] | IC50 [2] | IC50 [3] | Loss (reduction) in potency vs rSsp1a at hNaV1.2 ([1]; relative to wild type rSsp1a) | Loss (reduction) in potency vs rSsp1a at hNaV1.7 ([3]; relative to wild type rSsp1a) |
| --- | --- | --- | --- | --- | --- |
| CC(C)C[C@H](NC(=O)[C@H](CC(=O)O)NC(=O)[C@H](Cc1ccc(O)cc1)NC(=O)[C@H](CCCNC(=N)N)NC(=O)[C@@H]1CSSC[C@@H]2NC(=O)[C@H](CCCCN)NC(=O)[C@H](CC(N)=O)NC(=O)[C@H](CC(N)=O)NC(=O)[C@H](CC(N)=O)NC(=O)[C@@H]3CCCN3C(=O)[C@H](CC(=O)O)NC(=O)[C@@H]3CSSC[C@H](NC(=O)[C@H](C(C)C)NC(=O)[C@H](Cc4ccc(O)cc4)NC(=O)CNC(=O)[C@H](CCC(=O)O)NC(=O)[C@H](CSSC[C@H](NC(=O)[C@H](CC(=O)O)NC(=O)CN)C(=O)N[C@@H](CC(C)C)C(=O)N[C@@H](CCC(N)=O)C(=O)N[C@@H](Cc4c[nH]c5ccccc45)C(=O)N[C@@H](Cc4ccccc4)C(=O)N[C@@H](CO)C(=O)NCC(=O)N3)NC2=O)C(=O)N[C@@H](Cc2c[nH]cn2)C(=O)N[C@@H](Cc2c[nH]c3ccccc23)C(=O)N[C@@H](CCCCN)C(=O)N[C@@H](Cc2ccc(O)cc2)C(=O)N2CCC[C@H]2C(=O)N[C@@H](Cc2c[nH]c3ccccc23)C(=O)N1)C(=O)O [G4Q] | 0.503 µM | 0.999 µM | 0.606 µM | – | – |
| CC(C)C[C@H](NC(=O)[C@H](CC(=O)O)NC(=O)[C@H](Cc1ccc(O)cc1)NC(=O)[C@H](CCCNC(=N)N)NC(=O)[C@@H]1CSSC[C@@H]2NC(=O)[C@H](CCCCN)NC(=O)[C@H](CC(N)=O)NC(=O)[C@H](CC(N)=O)NC(=O)[C@H](CC(N)=O)NC(=O)[C@@H]3CCCN3C(=O)[C@H](CC(=O)O)NC(=O)[C@@H]3CSSC[C@H](NC(=O)[C@H](C(C)C)NC(=O)[C@H](Cc4ccc(O)cc4)NC(=O)CNC(=O)[C@H](CCC(=O)O)NC(=O)[C@H](CSSC[C@H](NC(=O)[C@H](CC(=O)O)NC(=O)CN)C(=O)N[C@@H](CC(C)C)C(=O)N[C@@H](CCCNC(=N)N)C(=O)N[C@@H](Cc4c[nH]c5ccccc45)C(=O)N[C@@H](Cc4ccccc4)C(=O)N[C@@H](CO)C(=O)NCC(=O)N3)NC2=O)C(=O)N[C@@H](Cc2c[nH]cn2)C(=O)N[C@@H](Cc2c[nH]c3ccccc23)C(=O)N[C@@H](CCCCN)C(=O)N[C@@H](Cc2ccc(O)cc2)C(=O)N2CCC[C@H]2C(=O)N[C@@H](Cc2c[nH]c3ccccc23)C(=O)N1)C(=O)O [G4R] | 0.193 µM | 0.409 µM | 0.201 µM | – | – |
| CC(C)C[C@H](NC(=O)[C@H](CC(=O)O)NC(=O)[C@H](Cc1ccc(O)cc1)NC(=O)[C@H](CCCNC(=N)N)NC(=O)[C@@H]1CSSC[C@@H]2NC(=O)[C@H](CCCCN)NC(=O)[C@H](CC(N)=O)NC(=O)[C@H](CC(N)=O)NC(=O)[C@H](CC(N)=O)NC(=O)[C@@H]3CCCN3C(=O)[C@H](CC(=O)O)NC(=O)[C@@H]3CSSC[C@H](NC(=O)[C@H](C(C)C)NC(=O)[C@H](Cc4ccc(O)cc4)NC(=O)CNC(=O)[C@H](CCC(=O)O)NC(=O)[C@H](CSSC[C@H](NC(=O)[C@H](CC(=O)O)NC(=O)CN)C(=O)N[C@@H](CC(C)C)C(=O)NCC(=O)N[C@@H](Cc4c[nH]c5ccccc45)C(=O)N[C@@H](Cc4ccccc4)C(=O)N[C@@H](CO)C(=O)N[C@@H](CCCNC(=N)N)C(=O)N3)NC2=O)C(=O)N[C@@H](Cc2c[nH]cn2)C(=O)N[C@@H](Cc2c[nH]c3ccccc23)C(=O)N[C@@H](CCCCN)C(=O)N[C@@H](Cc2ccc(O)cc2)C(=O)N2CCC[C@H]2C(=O)N[C@@H](Cc2c[nH]c3ccccc23)C(=O)N1)C(=O)O [G8R] | 0.117 µM | 0.415 µM | 0.096 µM | – | – |
| CC(C)C[C@H](NC(=O)[C@H](CC(=O)O)NC(=O)[C@H](Cc1ccc(O)cc1)NC(=O)[C@H](CCCNC(=N)N)NC(=O)[C@@H]1CSSC[C@@H]2NC(=O)[C@H](CCCCN)NC(=O)[C@H](CC(N)=O)NC(=O)[C@H](CC(N)=O)NC(=O)[C@H](CC(N)=O)NC(=O)[C@@H]3CCCN3C(=O)[C@H](CC(=O)O)NC(=O)[C@@H]3CSSC[C@H](NC(=O)[C@H](C(C)C)NC(=O)[C@H](Cc4ccc(O)cc4)NC(=O)CNC(=O)[C@H](CCC(=O)O)NC(=O)[C@H](CSSC[C@H](NC(=O)[C@H](CC(=O)O)NC(=O)CN)C(=O)N[C@@H](CC(C)C)C(=O)NCC(=O)N[C@@H](Cc4c[nH]c5ccccc45)C(=O)N[C@@H](Cc4ccccc4)C(=O)N[C@@H](CO)C(=O)NCC(=O)N3)NC2=O)C(=O)N2CCC[C@H]2C(=O)N[C@@H](Cc2c[nH]c3ccccc23)C(=O)N[C@@H](CCCCN)C(=O)N[C@@H](Cc2ccc(O)cc2)C(=O)N2CCC[C@H]2C(=O)N[C@@H](Cc2c[nH]c3ccccc23)C(=O)N1)C(=O)O [H23P] (H-GDCLGWFSGCDPNNNKCCEGYVCPWKYPWCRYDL-OH; disulfide 3-18, 10-23, 17-30 (inferred); N-terminus and C-terminus assumed) | > 3 µM | > 3 µM | > 3 µM | – | – |
| CC(C)C[C@H](NC(=O)[C@H](CC(=O)O)NC(=O)[C@H](Cc1ccc(O)cc1)NC(=O)[C@H](CCCNC(=N)N)NC(=O)[C@@H]1CSSC[C@@H]2NC(=O)[C@H](CCCCN)NC(=O)[C@H](CC(N)=O)NC(=O)[C@H](CC(N)=O)NC(=O)[C@H](CC(N)=O)NC(=O)[C@@H]3CCCN3C(=O)[C@H](CC(=O)O)NC(=O)[C@@H]3CSSC[C@H](NC(=O)[C@H](C(C)C)NC(=O)[C@H](Cc4ccc(O)cc4)NC(=O)CNC(=O)[C@H](CCC(=O)O)NC(=O)[C@H](CSSC[C@H](NC(=O)[C@H](CC(=O)O)NC(=O)CN)C(=O)N[C@@H](CC(C)C)C(=O)NCC(=O)N[C@@H](Cc4c[nH]c5ccccc45)C(=O)N[C@@H](Cc4ccccc4)C(=O)N[C@@H](CO)C(=O)NCC(=O)N3)NC2=O)C(=O)N[C@@H](CO)C(=O)N[C@@H](Cc2c[nH]c3ccccc23)C(=O)N[C@@H](CCCCN)C(=O)N[C@@H](Cc2ccc(O)cc2)C(=O)N2CCC[C@H]2C(=O)N[C@@H](Cc2c[nH]c3ccccc23)C(=O)N1)C(=O)O [H23S] | 0.156 µM | 0.679 µM | 0.198 µM | – | – |
| CC(C)C[C@H](NC(=O)[C@H](CC(=O)O)NC(=O)[C@H](Cc1ccc(O)cc1)NC(=O)[C@H](CCCNC(=N)N)NC(=O)[C@@H]1CSSC[C@@H]2NC(=O)[C@H](CCCCN)NC(=O)[C@H](CC(N)=O)NC(=O)[C@H](CC(N)=O)NC(=O)[C@H](CC(N)=O)NC(=O)[C@@H]3CCCN3C(=O)[C@H](CC(=O)O)NC(=O)[C@@H]3CSSC[C@H](NC(=O)[C@H](C(C)C)NC(=O)[C@H](Cc4ccc(O)cc4)NC(=O)CNC(=O)[C@H](CCC(=O)O)NC(=O)[C@H](CSSC[C@H](NC(=O)[C@H](CC(=O)O)NC(=O)CN)C(=O)N[C@@H](CC(C)C)C(=O)NCC(=O)N[C@@H](Cc4c[nH]c5ccccc45)C(=O)N[C@@H](Cc4ccccc4)C(=O)N[C@@H](CO)C(=O)NCC(=O)N3)NC2=O)C(=O)N[C@@H](Cc2c[nH]cn2)C(=O)N[C@@H](Cc2c[nH]c3ccccc23)C(=O)N[C@@H](C)C(=O)N[C@@H](Cc2ccc(O)cc2)C(=O)N2CCC[C@H]2C(=O)N[C@@H](Cc2c[nH]c3ccccc23)C(=O)N1)C(=O)O [K25A] (H-GDCLGWFSGCDPNNNKCCEGYVCHWAYPWCRYDL-OH; disulfide 3-18, 10-23, 17-30 (inferred); N-terminus and C-terminus assumed) | > 1 µM | > 1 µM | > 1 µM | ≥ 10 fold | ≥ 10 fold |
| CC(C)C[C@H](NC(=O)[C@H](CC(=O)O)NC(=O)[C@H](Cc1ccc(O)cc1)NC(=O)[C@H](CCCNC(=N)N)NC(=O)[C@@H]1CSSC[C@@H]2NC(=O)[C@H](CCCCN)NC(=O)[C@H](CC(N)=O)NC(=O)[C@H](CC(N)=O)NC(=O)[C@H](CC(N)=O)NC(=O)[C@@H]3CCCN3C(=O)[C@H](CC(=O)O)NC(=O)[C@@H]3CSSC[C@H](NC(=O)[C@H](C(C)C)NC(=O)[C@H](Cc4ccc(O)cc4)NC(=O)CNC(=O)[C@H](CCC(=O)O)NC(=O)[C@H](CSSC[C@H](NC(=O)[C@H](CC(=O)O)NC(=O)CN)C(=O)N[C@@H](C)C(=O)NCC(=O)N[C@@H](Cc4c[nH]c5ccccc45)C(=O)N[C@@H](Cc4ccccc4)C(=O)N[C@@H](CO)C(=O)NCC(=O)N3)NC2=O)C(=O)N[C@@H](Cc2c[nH]cn2)C(=O)N[C@@H](Cc2c[nH]c3ccccc23)C(=O)N[C@@H](CCCCN)C(=O)N[C@@H](Cc2ccc(O)cc2)C(=O)N2CCC[C@H]2C(=O)N[C@@H](Cc2c[nH]c3ccccc23)C(=O)N1)C(=O)O [L3A] | 0.154 µM | 0.311 µM | 0.17 µM | – | – |
